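96-well plates; 48 h exposure; 5 concentrations. Endpoints by linear interpolation between flanking doses. Not reached: highest tested concentration assigned. GI50 marks 50% less growth.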 Active and inactive are the calls of the source. Cut-off read from the data, not from the text of the source: active = GI50 up to about 1.1 µM and inactive = higher.
Legend:
Experiment in all cases: DTP human tumour cell line panel, 48 h
HCT-15 = system: HCT-15
SNB-19 = system: SNB-19
HOP-62 = system: HOP-62
DMS-114 = system: DMS-114
SNB-75 = system: SNB-75
A549 = system: A549
M14 = system: M14
UO-31 = system: UO-31
NCI-H460 = system: NCI-H460
Malme-3M = system: Malme-3M
KM12 = system: KM12
NCI-H522 = system: NCI-H522
K562 = system: K562
MOLT-4 = system: MOLT-4
SF-539 = system: SF-539
ACHN = system: ACHN
HCT-116 = system: HCT-116
UACC-257 = system: UACC-257
SF-268 = system: SF-268
OVCAR-3 = system: OVCAR-3
SK-MEL-28 = system: SK-MEL-28
CCRF-CEM = system: CCRF-CEM
LOX IMVI = system: LOX IMVI
TK-10 = system: TK-10
SF-295 = system: SF-295
HT-29 = system: HT-29
DMS-273 = system: DMS-273
NCI-H226 = system: NCI-H226
SW-620 = system: SW-620
OVCAR-8 = system: OVCAR-8
EKVX = system: EKVX
OVCAR-4 = system: OVCAR-4
COLO 205 = system: COLO 205
CAKI-1 = system: CAKI-1
786-0 = system: 786-0
RPMI-8226 = system: RPMI-8226
OVCAR-5 = system: OVCAR-5
SR = system: SR
SN12C = system: SN12C
HCC 2998 = system: HCC 2998
HL-60 = system: HL-60
XF498 = system: XF498
SK-MEL-2 = system: SK-MEL-2
SK-MEL-5 = system: SK-MEL-5
HOP-18 = system: HOP-18
HOP-92 = system: HOP-92
M19-MEL = system: M19-MEL
DLD-1 = system: DLD-1
RXF 393 = system: RXF 393
SK-OV-3 = system: SK-OV-3
A498 = system: A498
IGROV-1 = system: IGROV-1
UACC-62 = system: UACC-62
NCI/ADR-RES = system: NCI/ADR-RES
U-251 = system: U-251
KM-20L2 = system: KM-20L2
NCI-H23 = system: NCI-H23
SNB-78 = system: SNB-78
MCF7 = system: MCF7

## c1cnc2c(c1)-n1cccc1C1(CCCCC1)NN2
HCT-15
  GI50: 37.4 µM
SNB-19
  GI50: > 100 µM (inactive)
HOP-62
  GI50: > 100 µM (inactive)
DMS-114
  GI50: 53.1 µM (inactive)
SNB-75
  GI50: > 100 µM (inactive)
A549
  GI50: 54 µM (inactive)
M14
  GI50: > 100 µM (inactive)
UO-31
  GI50: 26.9 µM (inactive)
NCI-H460
  GI50: 61.5 µM (inactive)
Malme-3M
  GI50: 62.1 µM (inactive)
KM12
  GI50: 99.1 µM (inactive)
NCI-H522
  GI50: 63.1 µM (inactive)
K562
  GI50: 45.1 µM (inactive)
MOLT-4
  GI50: 24.5 µM (inactive)
SF-539
  GI50: > 100 µM (inactive)
ACHN
  GI50: 88.3 µM (inactive)
HCT-116
  GI50: 59.8 µM (inactive)
UACC-257
  GI50: 48.4 µM (inactive)
SF-268
  GI50: > 100 µM (inactive)
OVCAR-3
  GI50: 86.3 µM (inactive)
SK-MEL-28
  GI50: > 100 µM (inactive)
CCRF-CEM
  GI50: 41.5 µM (inactive)
LOX IMVI
  GI50: 50 µM (inactive)
TK-10
  GI50: 75.3 µM (inactive)
SF-295
  GI50: 69.2 µM (inactive)
HT-29
  GI50: > 100 µM (inactive)
DMS-273
  GI50: 46.5 µM (inactive)
NCI-H226
  GI50: > 100 µM (inactive)
SW-620
  GI50: > 100 µM (inactive)
OVCAR-8
  GI50: > 100 µM (inactive)
EKVX
  GI50: 82.2 µM (inactive)
OVCAR-4
  GI50: > 100 µM (inactive)
COLO 205
  GI50: > 100 µM (inactive)
CAKI-1
  GI50: 60 µM (inactive)
786-0
  GI50: > 100 µM (inactive)
RPMI-8226
  GI50: 47.9 µM (inactive)
OVCAR-5
  GI50: > 100 µM (inactive)
SR
  GI50: 40 µM (inactive)
SN12C
  GI50: > 100 µM (inactive)
HCC 2998
  GI50: > 100 µM (inactive)
HL-60
  GI50: 93.8 µM (inactive)
XF498
  GI50: 74.3 µM (inactive)
SK-MEL-2
  GI50: > 100 µM (inactive)
SK-MEL-5
  GI50: 71.3 µM (inactive)
HOP-18
  GI50: 8.18 µM (inactive)

## CN(C)CCNC(=O)c1cc(Cl)cc2ccc(-c3ccccc3)nc12
HCT-15
  GI50: 2.85 µM
SNB-19
  GI50: 5.04 µM (inactive)
HOP-62
  GI50: 3.13 µM (inactive)
DMS-114
  GI50: 3.46 µM (inactive)
HOP-92
  GI50: 2.82 µM (inactive)
SNB-75
  GI50: 1.86 µM (inactive)
M19-MEL
  GI50: 3.15 µM (inactive)
A549
  GI50: 2.87 µM (inactive)
DLD-1
  GI50: 3.3 µM (inactive)
RXF 393
  GI50: 3.86 µM (inactive)
UO-31
  GI50: 1.91 µM (inactive)
NCI-H460
  GI50: 2 µM (inactive)
Malme-3M
  GI50: 3.63 µM (inactive)
SK-OV-3
  GI50: 3.13 µM (inactive)
KM12
  GI50: 4.84 µM (inactive)
NCI-H522
  GI50: 5.37 µM (inactive)
K562
  GI50: 1.78 µM (inactive)
MOLT-4
  GI50: 0.447 µM (active)
SF-539
  GI50: 3.09 µM (inactive)
A498
  GI50: 5.48 µM (inactive)
HCT-116
  GI50: 2.18 µM (inactive)
UACC-257
  GI50: 2.92 µM (inactive)
SF-268
  GI50: 4.57 µM (inactive)
OVCAR-3
  GI50: 3.74 µM (inactive)
SK-MEL-28
  GI50: 4.83 µM (inactive)
CCRF-CEM
  GI50: 1.49 µM (inactive)
LOX IMVI
  GI50: 2.32 µM (inactive)
IGROV-1
  GI50: 3.18 µM (inactive)
SF-295
  GI50: 3.86 µM (inactive)
HT-29
  GI50: 2.22 µM (inactive)
UACC-62
  GI50: 2.45 µM (inactive)
DMS-273
  GI50: 2.3 µM (inactive)
NCI-H226
  GI50: 2.49 µM (inactive)
SW-620
  GI50: 2.32 µM (inactive)
OVCAR-8
  GI50: 2.92 µM (inactive)
EKVX
  GI50: 5.12 µM (inactive)
OVCAR-4
  GI50: 3.92 µM (inactive)
NCI/ADR-RES
  GI50: 2.51 µM (inactive)
COLO 205
  GI50: 1.6 µM (inactive)
CAKI-1
  GI50: 2.04 µM (inactive)
RPMI-8226
  GI50: 1.85 µM (inactive)
OVCAR-5
  GI50: 4.84 µM (inactive)
U-251
  GI50: 4.32 µM (inactive)
KM-20L2
  GI50: 2.65 µM (inactive)
NCI-H23
  GI50: 3.96 µM (inactive)
SN12C
  GI50: 3.02 µM (inactive)
HCC 2998
  GI50: 3.54 µM (inactive)
SNB-78
  GI50: 8.13 µM (inactive)
HL-60
  GI50: 2.05 µM (inactive)
XF498
  GI50: 2.18 µM (inactive)
MCF7
  GI50: 1.82 µM (inactive)
SK-MEL-2
  GI50: 4.85 µM (inactive)
SK-MEL-5
  GI50: 1.87 µM (inactive)
HOP-18
  GI50: 3.52 µM (inactive)

## O=P1(c2ccccc2)Nc2ccccc2SSc2ccccc2N1
HCT-15
  GI50: 17 µM
SNB-19
  GI50: 16.3 µM (inactive)
HOP-62
  GI50: > 10 µM (inactive)
DMS-114
  GI50: 19.5 µM (inactive)
HOP-92
  GI50: 15.4 µM (inactive)
SNB-75
  GI50: 20.4 µM (inactive)
M19-MEL
  GI50: 18.7 µM (inactive)
A549
  GI50: 19.6 µM (inactive)
DLD-1
  GI50: 17 µM (inactive)
RXF 393
  GI50: 19.4 µM (inactive)
UO-31
  GI50: 14.1 µM (inactive)
NCI-H460
  GI50: 18.4 µM (inactive)
Malme-3M
  GI50: 18.4 µM (inactive)
SK-OV-3
  GI50: 25.5 µM (inactive)
KM12
  GI50: 16.7 µM (inactive)
NCI-H522
  GI50: 15.1 µM (inactive)
K562
  GI50: 18.2 µM (inactive)
MOLT-4
  GI50: 18.7 µM (inactive)
SF-539
  GI50: 19.9 µM (inactive)
A498
  GI50: 20.4 µM (inactive)
HCT-116
  GI50: 16.8 µM (inactive)
UACC-257
  GI50: 15.8 µM (inactive)
SF-268
  GI50: 17.5 µM (inactive)
OVCAR-3
  GI50: 15.1 µM (inactive)
SK-MEL-28
  GI50: 18.7 µM (inactive)
CCRF-CEM
  GI50: 12.1 µM (inactive)
LOX IMVI
  GI50: 16.2 µM (inactive)
IGROV-1
  GI50: 19.7 µM (inactive)
SF-295
  GI50: 14.9 µM (inactive)
HT-29
  GI50: 19.2 µM (inactive)
UACC-62
  GI50: 15.6 µM (inactive)
DMS-273
  GI50: 17.4 µM (inactive)
NCI-H226
  GI50: 17 µM (inactive)
SW-620
  GI50: 16.7 µM (inactive)
OVCAR-8
  GI50: 18.2 µM (inactive)
EKVX
  GI50: 15.2 µM (inactive)
OVCAR-4
  GI50: 18.6 µM (inactive)
NCI/ADR-RES
  GI50: 19.9 µM (inactive)
COLO 205
  GI50: 20 µM (inactive)
CAKI-1
  GI50: 18.2 µM (inactive)
RPMI-8226
  GI50: 18.3 µM (inactive)
OVCAR-5
  GI50: 21.2 µM (inactive)
U-251
  GI50: 16.7 µM (inactive)
KM-20L2
  GI50: 17.9 µM (inactive)
NCI-H23
  GI50: 16.6 µM (inactive)
SN12C
  GI50: 17.8 µM (inactive)
HCC 2998
  GI50: 20.7 µM (inactive)
SNB-78
  GI50: 24.2 µM (inactive)
HL-60
  GI50: 13.8 µM (inactive)
XF498
  GI50: 17.8 µM (inactive)
MCF7
  GI50: 16.7 µM (inactive)
SK-MEL-2
  GI50: 16.7 µM (inactive)
SK-MEL-5
  GI50: 16.9 µM (inactive)
HOP-18
  GI50: 19.2 µM (inactive)

— ChEMBL document CHEMBL1201862, “PubChem BioAssay data set” (2004)
